Where two headings read alike, the source gives them in different places.
Tests used:
[1] = Solubility in aqueous media; format: physicochemical; conditions: lyophilized disodium salt of Compound 1, reconstituted in water, pH=8.4
[2] = Plasma pharmacokinetics after single subcutaneous doses, clinical phase I study; format: in vivo, human (healthy male subjects); conditions: male, human, sc, N = 6, plasma; for half-life: read-out: t1/2, G.M. (converted); for Tmax: read-out: tmax, Median
Method: (§1) The time- and dose-dependency of plasma concentration and inhibition of platelet aggregation (IPA) after subcutaneous administration of Compound 1 was investigated in a clinical phase I study in healthy male subjects.
(§2) In a randomized, double-blind, placebo-controlled study, 48 subjects in fasted condition were exposed to single, subcutaneous doses ranging from 1 to 32 mg (1 mg, 2 mg, 4 mg, 8 mg, 16 mg and 32 mg) of Compound 1 (n=6 on Compound 1 and n=2 on placebo per dose level).
(§3) Compound 1 for s.c. administration was available as sealed glass vials at the strength of 20 mg. The vials contained lyophilized Compound 1 to be reconstituted with 1 mL of water for injection to prepare stock solutions of 20 mg/mL (see above: Formulation of Compound 1 (higher dose of 20 mg/mL)). These stock solutions were further diluted with 0.9% sodium chloride to prepare 2, 4, 8, 16, and 20 mg/mL solutions. The volume injected was 0.5 mL for dose levels 1, 2, 4, and 8 mg. For dose levels 16 and 32 mg, 1 or 2 injection(s) of 0.8 mL from the 20 mg/mL solution was (were) performed.
(§4) The solution for injection was prepared for administration in a syringe suitable for s.c. injection. The solution was administered as injection(s) in the thigh.
The plasma PK parameters of Compound 1 were derived by non-compartmental analysis of the plasma concentration-time profiles. The following parameters were obtained:
maximum plasma concentration (Cmax); time to reach Cmax (tmax); area under the plasma concentration-time curve (AUC) from zero to time t of the last measured concentration above the limit of quantification (AUC0−t); and terminal elimination half-life (t1/2).
Blood was collected by direct venipuncture or via an i.v. catheter placed in an antecubital vein in the arm in a 4 mL Monovette® or equivalent tube containing ethylene diamine tetra-acetic acid. Immediately following collection of the required blood volume, the Monovettes® were slowly tilted backwards and forwards (no shaking) to bring the anticoagulant into solution, and immediately cooled on ice. Within 30 min of collection, the Monovettes® were centrifuged at approximately 1500 g for 10 min at 4° C. The plasma was transferred into one labeled polypropylene tube to avoid carry-over of erythrocytes. All samples were stored in an upright position below −70° C.
The analysis of Compound 1 in plasma was performed using a validated liquid chromatography coupled to tandem mass spectrometry assay. The lower limit of quantification (LLOQ) was 1 ng/mL. Concentrations were calculated by interpolation from a calibration curve. Quality control (QC) samples were analyzed throughout the study. Their measured concentrations were used to determine between-run and overall precision and accuracy of the analysis.

[3] = tested on: FeCl3 rat thrombosis model; conditions: compared with Ticagrelor; cited from earlier work
[4] = oral administration of Compound 1 or its prodrug, clinical phase I study; cited from earlier work
[5] = tested on: Adenosine diphosphate (ADP)-induced platelet aggregation; test: Inhibition of platelet aggregation (IPA), LTA assay, after single subcutaneous doses, clinical phase I study; format: in vivo, human (healthy male subjects); conditions: for % IPA (inhibition of platelet aggregation) calculated using maximum platelet aggregation values, mean ± SD: N = 6, 20 μM ADP
Method: as §1, §2, §3, §4
PD blood samples were collected by direct venipuncture or via an i.v. catheter placed in an antecubital vein in the arm, using 18-21 gauge needles. The first 2 mL of blood were discarded, and, thereafter, blood was drawn gently into two open 3.5 mL collection tubes. Collection tubes for LTA (light transmission aggregometry) assays contained phenylalanine-proline-arginine-cholormethylketone (PPACK) as an anticoagulant.
Adenosine diphosphate (ADP)-induced platelet aggregation was evaluated by a LTA assay measuring platelet-induced aggregation as an increase in light transmittance (Michelson A D, Methods for the measurement of platelet function (2009) Am J Cardiol 103(3):20A-26A).
LTA assay: The two 3.5 mL blood samples were centrifuged to prepare platelet-rich plasma (PRP) and platelet-poor plasma (PPP). If needed, PRP was adjusted to a final platelet count of 260×10^9 platelets per liter by dilution with PPP from the same donor. The assay was performed with an 8-channel platelet aggregometer, recording the aggregation after addition of 20 μM ADP as agonist for 6 min. The results are expressed as percent change in light transmittance at maximum (peak) platelet aggregation (MPA), calculated relative to the baseline signal of 0%. The measurements were performed in duplicate.

solubility [1]: 75 mg/mL
AUC(0-t) ([2]; 1 mg s.c. single dose): 56.1 ng·h/mL
Cmax ([2]; 1 mg s.c. single dose): 33.7 ng/mL
half-life ([2]; 1 mg s.c. single dose): 1.34 h
Tmax ([2]; 1 mg s.c. single dose): 0.5 h
AUC(0-t) ([2]; 2 mg s.c. single dose): 116 ng·h/mL
Cmax ([2]; 2 mg s.c. single dose): 58.4 ng/mL
half-life ([2]; 2 mg s.c. single dose): 1.92 h
Tmax ([2]; 2 mg s.c. single dose): 0.5 h
AUC(0-t) ([2]; 4 mg s.c. single dose): 261 ng·h/mL
Cmax ([2]; 4 mg s.c. single dose): 128 ng/mL
half-life ([2]; 4 mg s.c. single dose): 2.66 h
Tmax ([2]; 4 mg s.c. single dose): 0.5 h
AUC(0-t) ([2]; 8 mg s.c. single dose): 585 ng·h/mL
Cmax ([2]; 8 mg s.c. single dose): 273 ng/mL
half-life ([2]; 8 mg s.c. single dose): 3.98 h
Tmax ([2]; 8 mg s.c. single dose): 0.5 h
AUC(0-t) ([2]; 16 mg s.c. single dose): 1120 ng·h/mL
Cmax ([2]; 16 mg s.c. single dose): 435 ng/mL
half-life ([2]; 16 mg s.c. single dose): 7.2 h
Tmax ([2]; 16 mg s.c. single dose): 0.75 h
AUC(0-t) ([2]; 32 mg s.c. single dose): 2340 ng·h/mL
Cmax ([2]; 32 mg s.c. single dose): 930 ng/mL
half-life ([2]; 32 mg s.c. single dose): 9.2 h
Tmax ([2]; 32 mg s.c. single dose): 0.75 h
Structure (SMILES): CCCCOC(=O)N1CCN(C(=O)[C@H](CP(=O)(O)O)NC(=O)c2cc(N3CC[C@H](OC)C3)nc(-c3ccccc3)n2)CC1 [Compound 1, 4-((R)-2-{[6-((S)-3-methoxy-pyrrolidin-1-yl)-2-phenyl-pyrimidine-4-carbonyl]-amino}-3-phosphono-propionyl)-piperazine-1-carboxylic acid butyl ester]
therapeutic window [3]: significantly wider therapeutic window even than Ticagrelor
bleeding events [4]: No bleeding events were observed
% IPA (inhibition of platelet aggregation) calculated using maximum platelet aggregation values, mean ± SD ([5]; 1 mg s.c., 0.25 h): 61.4 ± 15.1%
% IPA (inhibition of platelet aggregation) calculated using maximum platelet aggregation values, mean ± SD ([5]; 1 mg s.c., 0.5 h): 64.4 ± 12.8%
% IPA (inhibition of platelet aggregation) calculated using maximum platelet aggregation values, mean ± SD ([5]; 1 mg s.c., 3 h): 15.8 ± 20.0%
% IPA (inhibition of platelet aggregation) calculated using maximum platelet aggregation values, mean ± SD ([5]; 1 mg s.c., 4 h): −10.0 ± 24.2%
% IPA (inhibition of platelet aggregation) calculated using maximum platelet aggregation values, mean ± SD ([5]; 1 mg s.c., 5 h): −6.1 ± 26.0%
% IPA (inhibition of platelet aggregation) calculated using maximum platelet aggregation values, mean ± SD ([5]; 1 mg s.c., 12 h): −4.5 ± 24.7%
% IPA (inhibition of platelet aggregation) calculated using maximum platelet aggregation values, mean ± SD ([5]; 1 mg s.c., 48 h): −47.7 ± 29.9%
% IPA (inhibition of platelet aggregation) calculated using maximum platelet aggregation values, mean ± SD ([5]; 2 mg s.c., 0.25 h): 60.3 ± 48.3%
% IPA (inhibition of platelet aggregation) calculated using maximum platelet aggregation values, mean ± SD ([5]; 2 mg s.c., 0.5 h): 79.5 ± 10.8%
% IPA (inhibition of platelet aggregation) calculated using maximum platelet aggregation values, mean ± SD ([5]; 2 mg s.c., 3 h): 36.8 ± 30.0%
% IPA (inhibition of platelet aggregation) calculated using maximum platelet aggregation values, mean ± SD ([5]; 2 mg s.c., 4 h): 35.5 ± 18.9%
% IPA (inhibition of platelet aggregation) calculated using maximum platelet aggregation values, mean ± SD ([5]; 2 mg s.c., 5 h): 14.1 ± 28.4%
% IPA (inhibition of platelet aggregation) calculated using maximum platelet aggregation values, mean ± SD ([5]; 2 mg s.c., 12 h): 31.3 ± 28.9%
% IPA (inhibition of platelet aggregation) calculated using maximum platelet aggregation values, mean ± SD ([5]; 2 mg s.c., 48 h): 11.3 ± 38.5%
% IPA (inhibition of platelet aggregation) calculated using maximum platelet aggregation values, mean ± SD ([5]; 4 mg s.c., 0.25 h): 79.7 ± 6.0%
% IPA (inhibition of platelet aggregation) calculated using maximum platelet aggregation values, mean ± SD ([5]; 4 mg s.c., 0.5 h): 84.7 ± 5.4%
% IPA (inhibition of platelet aggregation) calculated using maximum platelet aggregation values, mean ± SD ([5]; 4 mg s.c., 3 h): 58.5 ± 7.2%
% IPA (inhibition of platelet aggregation) calculated using maximum platelet aggregation values, mean ± SD ([5]; 4 mg s.c., 4 h): 50.6 ± 22.1%
% IPA (inhibition of platelet aggregation) calculated using maximum platelet aggregation values, mean ± SD ([5]; 4 mg s.c., 5 h): 47.9 ± 17.9%
% IPA (inhibition of platelet aggregation) calculated using maximum platelet aggregation values, mean ± SD ([5]; 4 mg s.c., 12 h): 37.4 ± 16.7%
% IPA (inhibition of platelet aggregation) calculated using maximum platelet aggregation values, mean ± SD ([5]; 4 mg s.c., 48 h): 2.1 ± 16.3%
% IPA (inhibition of platelet aggregation) calculated using maximum platelet aggregation values, mean ± SD ([5]; 8 mg s.c., 0.25 h): 88.9 ± 8.4%
% IPA (inhibition of platelet aggregation) calculated using maximum platelet aggregation values, mean ± SD ([5]; 8 mg s.c., 0.5 h): 90.0 ± 8.5%
% IPA (inhibition of platelet aggregation) calculated using maximum platelet aggregation values, mean ± SD ([5]; 8 mg s.c., 3 h): 77.9 ± 19.5%
% IPA (inhibition of platelet aggregation) calculated using maximum platelet aggregation values, mean ± SD ([5]; 8 mg s.c., 4 h): 70.9 ± 12.5%
% IPA (inhibition of platelet aggregation) calculated using maximum platelet aggregation values, mean ± SD ([5]; 8 mg s.c., 5 h): 75.2 ± 11.5%
% IPA (inhibition of platelet aggregation) calculated using maximum platelet aggregation values, mean ± SD ([5]; 8 mg s.c., 12 h): 64.0 ± 10.4%
% IPA (inhibition of platelet aggregation) calculated using maximum platelet aggregation values, mean ± SD ([5]; 8 mg s.c., 48 h): −1.3 ± 33.7%
duration for which mean % IPA≥85% was sustained post administration ([5]; 16 mg s.c.): approximately 5 h
% IPA (inhibition of platelet aggregation) calculated using maximum platelet aggregation values, mean ± SD ([5]; 16 mg s.c., 0.25 h): 92.8 ± 5.5%
% IPA (inhibition of platelet aggregation) calculated using maximum platelet aggregation values, mean ± SD ([5]; 16 mg s.c., 0.5 h): 93.1 ± 3.6%
% IPA (inhibition of platelet aggregation) calculated using maximum platelet aggregation values, mean ± SD ([5]; 16 mg s.c., 3 h): 95.0 ± 1.2%
% IPA (inhibition of platelet aggregation) calculated using maximum platelet aggregation values, mean ± SD ([5]; 16 mg s.c., 4 h): 88.2 ± 4.7%
% IPA (inhibition of platelet aggregation) calculated using maximum platelet aggregation values, mean ± SD ([5]; 16 mg s.c., 5 h): 87.6 ± 5.5%
% IPA (inhibition of platelet aggregation) calculated using maximum platelet aggregation values, mean ± SD ([5]; 16 mg s.c., 12 h): 76.0 ± 13.8%
% IPA (inhibition of platelet aggregation) calculated using maximum platelet aggregation values, mean ± SD ([5]; 16 mg s.c., 48 h): −1.6 ± 43.8%
duration for which mean % IPA≥85% was sustained post administration ([5]; 32 mg s.c.): ~12 h
% IPA (inhibition of platelet aggregation) calculated using maximum platelet aggregation values, mean ± SD ([5]; 32 mg s.c., 0.25 h): 95.5 ± 2.7%
% IPA (inhibition of platelet aggregation) calculated using maximum platelet aggregation values, mean ± SD ([5]; 32 mg s.c., 0.5 h): 94.5 ± 2.0%
% IPA (inhibition of platelet aggregation) calculated using maximum platelet aggregation values, mean ± SD ([5]; 32 mg s.c., 3 h): 94.5 ± 2.0%
% IPA (inhibition of platelet aggregation) calculated using maximum platelet aggregation values, mean ± SD ([5]; 32 mg s.c., 4 h): 91.2 ± 1.9%
% IPA (inhibition of platelet aggregation) calculated using maximum platelet aggregation values, mean ± SD ([5]; 32 mg s.c., 5 h): 92.1 ± 2.6%
% IPA (inhibition of platelet aggregation) calculated using maximum platelet aggregation values, mean ± SD ([5]; 32 mg s.c., 12 h): 83.5 ± 12.9%
% IPA (inhibition of platelet aggregation) calculated using maximum platelet aggregation values, mean ± SD ([5]; 32 mg s.c., 48 h): 29.8 ± 20.9%
time post dosing at which peak % IPA was achieved ([5]; at each dose level (1 to 32 mg s.c.)): 15 to 30 min
peak % IPA ([5]; doses ≥4 mg s.c.): exceeded 85%
peak % IPA ([5]; doses ≥8 mg s.c.): exceeded 85%
time in which peak % IPA exceeded 85% ([5]; doses ≥8 mg s.c.): less than 15 min
